In patent US6127342A, “Method for preventing or treating a lung disease caused by active oxygen and free radical injury” (Teijin Limited, priority 1991, dated 2000):

Legend:
[1] = tested on: coronary ischemia-reperfusion model using dogs; assay: Mortality during coronary ischemia-reperfusion in dogs; assay type: in vivo; settings: dog; for Mortality rate (number of dogs that died / number of dogs in experiment), 1 hour of reperfusion: 1 hour of reperfusion after 10 mg/kg i.v. just before reperfusion; for Mortality rate (number of dogs that died / number of dogs in experiment), 2 hours of ischemia: before the drug was given (10 mg/kg i.v. just before reperfusion)
Method: After anesthetizing 52 adult mongrel dogs of either sex weighing ca. 10 kg by intraperitoneal administration of 50 mg/kg of sodium pentobarbital, breathing tubes were immediately intubated endotracheally and artificial ventilation was continued using a Harvard ventilator. Electrocardiogram electrodes were attached, and monitoring and recording were continued throughout the experiment. Following insertion of cannulas in the right femoral vein and right femoral artery, the cannulas were used for continuous intravenous drip of physiological saline to replenish water or administration of the test preparation, and monitoring of arterial blood pressure, respectively. After performing left thoracotomy in the fourth or fifth intercostal space, the pericardium was torn to expose the heart. Ischemia was induced by ligating the left anterior descending coronary artery immediately distal to the first diagonal branch, while reperfusion was performed by subsequently removing that ligation.
The animals were divided into four groups. Group 1 (n=9) was subjected to ischemia for 2 hours, group 2 (n=17) was subjected to ischemia for 2 hours followed by reperfusion for 1 hour, group 3 (n=10) was subjected to ischemia for 2 hours followed by reperfusion for 1 hour plus intravenous injection of 10 mg/kg of γ-GCE just before reperfusion, and group 4 (n=16) was subjected to 2 hours of ischemia followed by 1 hour of reperfusion plus intravenous injection of 10 mg/kg of reduced glutathione (GSH, control drug) just before reperfusion.

[2] = in vivo; cited from earlier work
[3] = tested on: ovalbumin inhalation model using guinea pigs; assay: Airway responsiveness (Ach PC200) in ovalbumin inhalation model; assay type: in vivo; settings: guinea pig; 2% OA aerosol 10 days; 10 mg/kg i.p. twice daily for 10 days; FIG. 3
Method: (§1) Male Hartley guinea pigs weighing 350-400 g were divided into three groups, i.e., the control group, the ovalbumin (OA) group and the OA+γ-GCE group. The control group was allowed to inhale an aerosol of physiological saline for 7-8 minutes per day for 10 consecutive days. The OA group was allowed to inhale an aerosol of 2% OA in the same manner. The OA+γ-GCE group was allowed to similarly inhale an aerosol of 2% OA together with intraperitoneal administration of 10 mg/kg of γ-GCE twice daily for 10 days.
Evaluation of efficacy was performed by measuring (1) the minimum provocative concentration of acetylcholine (Ach) at which the respiratory resistance reached more than 200% of baseline (Ach Provocative Concentration 200) both before and after inhalation for 10 days, together with measuring (2) the number of pulmonary membrane β-receptors and adenylate cyclase activity, and (3) xanthine oxidase activities in lung tissue, bronchoalveolar lavage fluid and serum, following 10 days of inhalation.
Each of the measurements were made using 6 animals in each group, and the results were expressed as mean ± standard deviation. Evaluation of significance was performed using Dunnett's test. Cases of P being less than 0.05 were considered to be statistically significant.

[4] = tested on: pulmonary membrane β-receptors; assay: Number of pulmonary membrane β-receptors in ovalbumin inhalation model; assay type: in vivo; settings: guinea pig; 2% OA aerosol 10 days; 10 mg/kg i.p. twice daily for 10 days; FIG. 4
Method: as §1, with “10 days. […] Each of the measurements were made using 6 animals in each group, and the results were expressed as mean ± standard deviation. Evaluation of significance was performed using Dunnett's test. Cases of P being less than 0.05 were considered to be statistically significant.” for “10 days.”

[5] = tested on: pulmonary membrane adenylate cyclase; assay: Pulmonary membrane adenylate cyclase activity in ovalbumin inhalation model; assay type: in vivo; settings: guinea pig; 2% OA aerosol 10 days; 10 mg/kg i.p. twice daily for 10 days; isoproterenol-stimulated and baseline; FIG. 5
Method: as §1, with “10 days. […] Each of the measurements were made using 6 animals in each group, and the results were expressed as mean ± standard deviation. Evaluation of significance was performed using Dunnett's test. Cases of P being less than 0.05 were considered to be statistically significant.” for “10 days.”

xanthine oxidase = assay: Xanthine oxidase activities in lung tissue, bronchoalveolar lavage fluid and serum; assay type: in vivo; settings: guinea pig; OA inhalation 10 days + 10 mg/kg i.p. twice daily
Method: as §1, with “10 days. […] Each of the measurements were made using 6 animals in each group, and the results were expressed as mean ± standard deviation. Evaluation of significance was performed using Dunnett's test. Cases of P being less than 0.05 were considered to be statistically significant.” for “10 days.”

[6] = 10 mg/kg i.v. just before reperfusion

| Structure (SMILES) | animals died due to ventricular fibrillation during reperfusion [1, 6] | Mortality rate (number of dogs that died / number of dogs in experiment), 1 hour of reperfusion [1] | Mortality rate (number of dogs that died / number of dogs in experiment), 2 hours of ischemia [1] | half-life in the blood when administered [2] | mortality rate during reperfusion [1, 6] | effect on increase in airway responsiveness (decrease in log[Ach PC200]) after OA inhalation [3] | effect on the reduction in pulmonary membrane β-receptors after OA inhalation [4] | effect on the reduction in pulmonary membrane adenylate cyclase activity after OA inhalation [5] | Xanthine oxidase activity, bronchoalveolar lavage fluid (xanthine oxidase) | Xanthine oxidase activity, lung tissue (xanthine oxidase) | Xanthine oxidase activity, serum (xanthine oxidase) | xanthine oxidase values compared with the OA group, lung tissue and bronchoalveolar lavage fluid (xanthine oxidase) |
| --- | --- | --- | --- | --- | --- | --- | --- | --- | --- | --- | --- | --- |
| N[C@@H](CCC(=O)N[C@@H](CS)C(=O)NCC(=O)O)C(=O)O [GSH, reduced glutathione, reference compound] | ca. 50% | 7/15 | 1/16 | several minutes |  |  |  |  |  |  |  |  |
| CCOC(=O)[C@H](CS)NC(=O)CC[C@H](N)C(=O)O [γ-GCE, γ-L-glutamyl-L-cysteine ethyl ester] |  | 0/8 | 2/10 |  | 0 | inhibited (1) the remarkable increase in airway responsiveness | inhibited | inhibited | 9.43 ± 0.95 mU/ml | 33.3 ± 4.02 mU/g tissue | 10.0 ± 1.77 mU/ml | significantly lower than those of the OA group |
